Entries after “also recorded” stand apart in the source; their conditions may differ.
Experiments:
[1] = system: human aortic SMCs (AoSMCs); assay: Immunocytochemistry and morphometry of elastic fibers in AoSMC cultures; assay type: cell-based; conditions: 24-hour treatment, 0.5 to 100 nmol/L insulin, confluent AoSMCs, 2% FBS
Description: Human aortic SMCs (AoSMCs) were propagated from small fragments of aortic media collected from autopsy. Guidelines for the protection of human subjects of the US Department of Health and Human Services and of the Declaration of Helsinki were followed in obtaining tissues for this investigation. Cells migrating from the cultured explants of aortic media were routinely passaged (up to three times) via trypsinization using 0.2% trypsin-0.02% EDTA, and were maintained in DMEM supplemented with 5% FBS and 1% antibiotic-antimycotic mix. The second and third passages of cells that migrated from the original explants of aortic media were routinely probed with antibodies recognizing the SMC-specific α-actin to monitor the preservation of the SMC phenotype. All cells were initially plated at 100,000 cells per dish for immediate confluency so they would begin extracellular matrix production. The cell cultures committed to particular experiments were then transferred to DMEM containing either 2% FBS or to serum-free medium before initiation of particular treatments.
At the end of treatments, confluent cultures of AoSMCs were fixed in cold 100% methanol at −20° C. for 30 minutes, and blocked with 1% normal goat serum for 1 hour. The cultures were then incubated for 1 hour with 10 μg/mL polyclonal antibodies to tropoelastin and/or with 10 μg/mL monoclonal antibody to SMC-specific α-actin. All cultures were then incubated for another hour with the respective fluorescein-conjugated secondary antibodies (fluorescein-conjugated goat anti-rabbit or anti-mouse). Nuclei were counterstained with red-fluorescent propidium iodide or blue-fluorescent DAPI. The cultures were then mounted in ethanol and examined using a microscope (Eclipse E1000; Nikon Instruments, Inc., Melville, N.Y.) attached to a cooled CCD camera (Retiga EX; QImaging Corp., Vancouver, BC, Canada) and a computer-generated morphometric analysis system (Image-Pro Plus software; Media Cybernetics, Inc., Bethesda, Md.). In each analyzed group, 50 low-power fields from three separate cultures were analyzed, and the areas occupied by immunodetectable elastic fibers were expressed as a percentage of the entire analyzed field.

[2] = system: human aortic SMCs (AoSMCs); assay: Quantitative assay of [3H]-valine-labeled insoluble elastin; assay type: cell-based; conditions: 24-hour treatment, 0.5 to 100 nmol/L insulin
Procedure: Cells were plated in 35-mm dishes at a density of 100,000 cells per dish and were grown to confluency. Two microcuries [3H]-valine per milliliter fresh medium supplemented with 2% FBS was added 2 hours before the indicated treatments. At the end of each experiment, the conditioned medium was collected and subjected to immunoprecipitation using anti-tropoelastin antibody. The cell layers were washed with PBS and incubated using radioimmunoprecipitation lysis buffer for 10 minutes on ice. After centrifugation, the supernatants were collected and subjected to immunoprecipitation using anti-tropoelastin antibody. The remaining pellets containing extracellular matrix were scraped and boiled in 500 μL 0.1 N NaOH for 30 minutes to solubilize all matrix components except the cross-linked elastin. Final results (counts per minute) reflecting the total amount of [3H]-valine-labeled insoluble elastin in individual cultures were normalized per their DNA contents (assessed using the Qiagen DNEASY® (DNA isolation) Tissue Kit) and expressed as percentage of control values.

[3] = system: cultures derived from aortic adventitia, primarily fibroblasts; assay: Elastic fiber deposition in cultures derived from aortic adventitia; assay type: cell-based, human
[4] = system: fibronectin or collagen I; assay: Immunodetection of deposited fibronectin and collagen I; assay type: cell-based, human; conditions: insulin-treated cultures of both cell types
[5] = system: human aortic SMCs (AoSMCs); assay: Cell proliferation ([3H]-thymidine incorporation and Ki-67 immunodetection); assay type: cell-based; conditions: 48-hour AoSMC cultures, 0.5 to 100 nmol/L insulin
Procedure: Cells were plated in 35-mm culture dishes (100,000 cells per dish) containing DMEM supplemented with 5% FBS. The cultures were grown to 70% to 80% confluency and serum-starved overnight to synchronize the cell cycles. […] The total amount of [3H]-thymidine-labeled DNA in individual cultures was then assessed via scintillation counting. […] The cultures were counterstained with hematoxylin. In each experimental group, quadruplicate cultures were examined under 200× magnification. The percentage of positively stained cells was determined and averaged over the 30 fields examined.

IGF-1R = biological target: T1, IGF-1R (Homo sapiens, UniProt P08069); assay: Immunoprecipitation and anti-phospho-Tyr blotting of IGF-1R; assay type: cell-based; conditions: 30 minutes, 0.5 to 10 nmol/L insulin or 10 nmol/L IGF-1, AoSMCs
T1 construct: 30-minute treatment of cultured AoSMCs; endogenous in cells; host or cells: human aortic smooth muscle cells (AoSMCs), second passage
Procedure: At the end of indicated treatments, the cultured cells were lysed as described, and 300 μL aliquots of cell extracts containing 300 μL proteins were incubated at 4° C. for 3 hours with the aliquots of protein G bound DYNABEADS® (Invitrogen Corp.) that were conjugated with either rabbit polyclonal anti-tropoelastin, goat polyclonal anti-Glut10, or rabbit polyclonal anti-S-Gal antibodies. The beads carrying the final immunoprecipitation products were then washed with PBS, resuspended in sample buffer, and boiled for 5 minutes. The released proteins were then resolved on SDS-PAGE gel and subjected to Western blotting using indicated antibodies.

cdk-2 = assay: Western blotting of cdk-2 phosphorylation; assay type: cell-based, human; conditions: 30-minute treatment, 10 nmol/L insulin
Description: (§1) At the end of all treatments, cells from quadruplicate cultures in each experimental group were lysed using NP40 cell lysis buffer (Invitrogen Corp.). Thirty micrograms of protein extracts from each sample was suspended in standard sample buffer, resolved on 4% to 12% gradient SDS-PAGE gels, transferred to nitrocellulose membranes, and subjected to Western blotting using antibodies.

retinoblastoma protein = assay: Western blotting of retinoblastoma protein phosphorylation; assay type: cell-based, human; conditions: 30-minute treatment, 10 nmol/L insulin
Description: as §1

S-Gal/EBP = assay: Association of tropoelastin with S-Gal/EBP chaperone (Western blot, co-immunoprecipitation, double immunostaining); assay type: cell-based, human; conditions: 20 minutes, 10 nmol/L insulin
Procedure: Cultures fixed for 30 minutes in cold 100% methanol were then blocked with 1% glycine for 15 minutes, followed by 2% bovine serum albumin with 0.1% Triton X-100 for another hour at room temperature. They were finally exposed for 1 hour to the mixture of 5 μg/mL polyclonal anti-S-Gal/EBP and 5 μg/mL monoclonal anti-tropoelastin antibodies. All cultures were then incubated for another hour with the mixture of fluorescein-conjugated and rhodamine-conjugated secondary antibodies. Nuclei were counterstained with DAPI. At the end of all treatments, cells from quadruplicate cultures in each experimental group were lysed using NP40 cell lysis buffer (Invitrogen Corp.). Thirty micrograms of protein extracts from each sample was suspended in standard sample buffer, resolved on 4% to 12% gradient SDS-PAGE gels, transferred to nitrocellulose membranes, and subjected to Western blotting using antibodies. At the end of indicated treatments, the cultured cells were lysed as described, and 300 μL aliquots of cell extracts containing […] were incubated at 4° C. for 3 hours with the aliquots of protein G bound DYNABEADS® (Invitrogen Corp.) that were conjugated with either rabbit polyclonal anti-tropoelastin, goat polyclonal anti-Glut10, or rabbit polyclonal anti-S-Gal antibodies. The beads carrying the final immunoprecipitation products were then washed with PBS, resuspended in sample buffer, and boiled for 5 minutes. The released proteins were then resolved on SDS-PAGE gel and subjected to Western blotting using indicated antibodies.

## insulin
[1]
  production of immunodetected elastic fibers: dose-dependent increase; also recorded: induce new elastogenesis in a dose-dependent manner
[2]
  levels of metabolically labeled insoluble elastin: up-regulated
[3]; 1 nmol/L insulin, primarily fibroblasts
  deposition of new elastic fibers in aortic adventitia cultures: stimulated deposition of new elastic fibers
[3]; 48-hour treatment with 10 nmol/L insulin
  deposition of immunodetected elastic fibers in aortic media and adventitia cultures: deposit multiple immunodetected elastic fibers
[4]
  deposition of immunodetectable fibronectin or collagen I: did not reveal any up-regulation
[5]
  basic proliferative rate ([3H]-thymidine incorporation, Ki-67): did not induce any up-regulation
IGF-1R
  phosphorylation of IGF-1R: did not affect phosphorylation
cdk-2
  phosphorylation of cdk-2 on tyrosine 160: did not induce phosphorylation
Retinoblastoma protein
  site-specific phosphorylation of retinoblastoma protein on threonine 821: did not
S-Gal/EBP
  S-Gal/EBP coimmunoprecipitated using anti-tropoelastin antibody vs untreated: significantly more
  basic levels of intracellular S-Gal/EBP or tropoelastin (Western blot): did not demonstrate any increase; also recorded: do not demonstrate any increase
  co-localization of tropoelastin and S-Gal/EBP (double immunostaining): reveal co-localization
